From patent publication US11390631B1, “Benzodiazepine derivatives as RSV inhibitors” (priority 2015, dated 2022) come the findings set out here.

As usually defined, the EC50 is the concentration giving half of the maximal effect.

Each structure is given as a SMILES string.

One assay has as its system Human RSV-A (“Long” strain). The experiment in a line: RSV-A assay: inhibition of cytopathic effect in Hep-2 cells, ATPlite readout. Format: cell-based, Human respiratory syncytial virus (HRSV). To be noted: Hep-2 cells, MOI 0.1, 5-day incubation, ATPlite; read-out: Human RSV-A (“Long” strain) EC50. The procedure, abridged:
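Hep-2 cells (8,000/well) were infected with RSV-A Long at MOI 0.1 alongside duplicate 2-fold compound dilutions. After 5 days, cell viability was read by ATPlite luminescence to give EC50. CC50 came from a parallel plate without virus.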
(Damage to the host cells serves as the signal in cytopathic effect assays.)
For the compound `COC[C@H]1C[C@@H]1c1sc(C(F)(F)F)nc1-c1nnc(N[C@H]2N=C(c3ccccc3)c3ccccc3NC2=O)o1` [Example 395], the EC50 is over 800 nM.

The same assay, now with this note: human respiratory syncytial virus, HEp-2, 120 h, read-out: Human RSV-A (“Long” strain) EC50.
Take `O=C1Nc2ccccc2C(c2ccccc2)=N[C@@H]1Nc1nnc(-c2ncc(C3CC3)cc2N2CC3CCC(C2)O3)o1` [Example 321]: the EC50 was under 400 nM.

`N#Cc1cc(N2CCOCC2)c(-c2nnc(N[C@H]3N=C(c4ccccc4)c4ccccc4NC3=O)o2)s1` [Example 323]: the EC50 is under 400 nM.

`N#Cc1ccc(N2CCOCC2)c(-c2nnc(N[C@H]3N=C(c4ccccc4)c4ccccc4NC3=O)o2)n1` [Example 324]: the EC50 is under 400 nM.

As to `N#Cc1cnc(-c2nnc(N[C@H]3N=C(c4ccccc4)c4ccccc4NC3=O)o2)c(N2CCOCC2)c1` [Example 325], the EC50 was under 400 nM.

Turning to `C[C@@H]1CN(c2cc(C#N)cnc2-c2nnc(N[C@H]3N=C(c4ccccc4)c4ccccc4NC3=O)o2)CCO1` [Example 326], the EC50 lay in the range of 400 to 800 nM.

As for `CN1CCN(c2cc(C(F)(F)F)cnc2-c2nnc(N[C@H]3N=C(c4ccccc4)c4ccccc4NC3=O)o2)CC1` [Example 327], the EC50 was 400 to 800 nM.

Consider `O=C1Nc2ccccc2C(c2ccccc2)=N[C@@H]1Nc1nnc(-c2ncc(C(F)(F)F)cc2N2CCC(O)CC2)o1` [Example 328], for which the EC50 is over 800 nM.

In the case of `C[C@H]1CN(c2cc(C#N)cnc2-c2nnc(N[C@H]3N=C(c4ccccc4)c4ccccc4NC3=O)o2)CCO1` [Example 329], the 50% effective concentration (EC50) is under 400 nM.

For the compound `Cc1cc(-c2nnc(N[C@H]3N=C(c4ccccc4)c4ccccc4NC3=O)o2)c(N2CCOCC2)s1` [Example 330], the 50% effective concentration (EC50) was under 400 nM.

With `N#CCNc1cc(C(F)(F)F)cnc1-c1nnc(N[C@H]2N=C(c3ccccc3)c3ccccc3NC2=O)o1` [Example 331], the concentration giving a half-maximal response (EC50) is over 800 nM.

Regarding `CS(=O)(=O)c1cnc(-c2nnc(N[C@H]3N=C(c4ccccc4)c4ccccc4NC3=O)o2)c(N2CCOCC2)c1` [Example 332], the EC50 is over 800 nM.

Turning to `N#Cc1cnc(-c2nnc(N[C@H]3N=C(c4ccccc4)c4ccccc4NC3=O)o2)c(N2C3CCC2COC3)c1` [Example 333], the EC50 fell in the range of 400 to 800 nM.

In the case of `COCCNc1sc(C)nc1-c1nnc(N[C@H]2N=C(c3ccccc3)c3ccccc3NC2=O)o1` [Example 335], the EC50 was under 400 nM.

With `Cc1nc(-c2nnc(N[C@H]3N=C(c4ccccc4)c4ccccc4NC3=O)o2)c(N2CCOCC2)o1` [Example 337], the EC50 is under 400 nM.

In the case of `COc1ccccc1-c1nc(-c2nnc(N[C@H]3N=C(c4ccccc4)c4ccccc4NC3=O)o2)c(N2CCOCC2)s1` [Example 342], the concentration for a half-maximal effect (EC50) is under 400 nM.

`Cc1nc(-c2nnc(N[C@H]3N=C(c4ccccc4)c4ccccc4NC3=O)o2)cs1` [Example 343]: the EC50 was over 800 nM.

With `Cc1nc(-c2nnc(N[C@H]3N=C(c4ccccc4)c4ccccc4NC3=O)o2)c(Cl)s1` [Example 344], the 50% effective concentration (EC50) was over 800 nM.

Regarding `Cc1nc(-c2nnc(N[C@H]3N=C(c4ccccc4)c4ccccc4NC3=O)o2)c(C2=CCOCC2)s1` [Example 345, (S)-3-((5-(5-(3,6-dihydro-2H-pyran-4-yl)-2-methylthiazol-4-yl)-1,3,4-oxadiazol-2-yl)amino)-5-phenyl-1,3-dihydro-2H-benzo[e][1,4]diazepin-2-one], the concentration giving a half-maximal response (EC50) was under 400 nM.

For the compound `Cc1nc(-c2nnc(N[C@H]3N=C(c4ccccc4)c4ccccc4NC3=O)o2)c(C2CCOCC2)s1` [Example 346, (S)-3-((5-(2-methyl-5-(tetrahydro-2H-pyran-4-yl)thiazol-4-yl)-1,3,4-oxadiazol-2-yl)amino)-5-phenyl-1,3-dihydro-2H-benzo[e][1,4]diazepin-2-one], the EC50 was under 400 nM.

Regarding `O=C1Nc2ccccc2C(c2ccccc2)=N[C@@H]1Nc1nnc(-c2ncsc2C2=CCOCC2)o1` [Example 347], the EC50 was under 400 nM.

Take `O=C1Nc2ccccc2C(c2ccccc2)=N[C@@H]1Nc1nnc(-c2occc2N2CCOCC2)o1` [Example 348]: the 50% effective concentration (EC50) is under 400 nM.

As for `O=C1Nc2ccccc2C(c2ccccc2)=N[C@@H]1Nc1nnc(-c2ccnn2-c2ccccc2)o1` [Example 349], the EC50 is over 800 nM.

In the case of `O=C1Nc2ccccc2C(c2ccccc2)=N[C@@H]1Nc1nnc(-c2cnn(-c3ccccc3)c2)o1` [Example 350], the EC50 is 400 to 800 nM.

On to `O=C1Nc2ccccc2C(c2ccccc2)=NC1Nc1nnc(-c2ccccc2C2=CCOCC2)o1` (stereo not shown) [Example 353, 3-((5-(2-(3,6-dihydro-2H-pyran-4-yl)phenyl)-1,3,4-oxadiazol-2-yl)amino)-5-phenyl-1,3-dihydro-2H-benzo[e][1,4]diazepin-2-one], for which the EC50 is over 800 nM.

Turning to `O=C1Nc2ccccc2C(c2ccccc2)=NC1Nc1nnc(-c2ccccc2C2CCOCC2)o1` (stereo not shown) [Example 354], the EC50 is over 800 nM.

Regarding `O=C1Nc2c(F)cccc2C(c2ccccc2)=N[C@H]1Nc1nnc(-c2ccccc2N2CCOCC2)o1` [Example 355b], the 50% effective concentration (EC50) is over 800 nM.

On to `O=C1Nc2c(F)cccc2C(c2ccccc2)=NC1Nc1nnc(-c2ccc(N3CCOCC3)cc2)o1` (stereo not shown) [Example 356], for which the half-maximal effective concentration (EC50) is 400 to 800 nM.

In the case of `N#Cc1cnc(-c2nnc(N[C@H]3N=C(c4ccccc4)c4cccc(F)c4NC3=O)o2)c(N2CCOCC2)c1` [Example 361], the EC50 is under 400 nM.

On to `O=C1Nc2c(Cl)cccc2C(c2ccccc2)=NC1Nc1nnc(-c2ccccc2N2CCOCC2)o1` (stereo not shown) [Example 362], for which the EC50 is over 800 nM.

Turning to `O=C1Nc2ccccc2C(c2ccccc2)=NC1Nc1nnc(-c2ccc(F)cc2)[nH]1` (stereo not shown) [Example 363], the EC50 was over 800 nM.

On to `N#Cc1ccc(-c2nnc(NC3N=C(c4ccccc4)c4ccccc4NC3=O)[nH]2)cc1` (stereo not shown) [Example 365], for which the EC50 fell in the range of 400 to 800 nM.

In the case of `O=C1Nc2ccccc2C(c2ccccc2)=NC1Nc1nnc(-c2ccncc2)[nH]1` (stereo not shown) [Example 366], the concentration giving a half-maximal response (EC50) was over 800 nM.

As to `O=C1Nc2ccccc2C(c2ccccc2)=NC1Nc1nnc(-c2ccccc2N2CCOCC2)[nH]1` (stereo not shown) [Example 367], the EC50 is over 800 nM.

Consider `N#Cc1ccc(-c2cnc(NC3N=C(c4ccccc4)c4ccccc4NC3=O)o2)cc1` (stereo not shown) [Example 368], for which the concentration for a half-maximal effect (EC50) lay in the range of 400 to 800 nM.

As to `O=C1Nc2ccccc2C(c2ccccc2)=NC1Nc1ncc(-c2ccc(F)cc2)o1` (stereo not shown) [Example 369], the EC50 was over 800 nM.

For the compound `O=C1Nc2ccccc2C(c2ccccc2)=NC1Nc1ncc(-c2ccc(Br)cc2)o1` (stereo not shown) [Example 370], the EC50 was over 800 nM.

With `O=C1Nc2ccccc2C(c2ccccc2)=NC1Nc1ncc(-c2ccccc2)cn1` (stereo not shown) [Example 371], the EC50 was over 800 nM.

For `O=C1Nc2ccccc2C(c2ccccc2)=NC1Nc1nnc(C2CC2)[nH]1` (stereo not shown) [Example 372], the EC50 was over 800 nM.

On to `O=C1Nc2ccccc2C(c2ccccc2)=NC1Nc1cnc(-c2ccc(F)cc2)cn1` (stereo not shown) [Example 373], for which the EC50 is over 800 nM.

In the case of `O=C1Nc2ccccc2C(c2ccccc2)=NC1Nc1ccc(-c2ccc(F)cc2)nn1` (stereo not shown) [Example 374], the half-maximal effective concentration (EC50) was over 800 nM.

`O=C1Nc2ccccc2C(c2ccccc2)=NC1Nc1ccc(-c2ccncc2)nn1` (stereo not shown) [Example 375]: the 50% effective concentration (EC50) was over 800 nM.

For `COc1ccc(-c2ccc(NC3N=C(c4ccccc4)c4ccccc4NC3=O)nn2)cc1` (stereo not shown) [Example 376], the EC50 was over 800 nM.

`O=C1Nc2ccccc2C(c2ccccc2)=NC1Nc1ccc(-c2ccccc2N2CCOCC2)nn1` (stereo not shown) [Example 378]: the EC50 is over 800 nM.

`O=C1Nc2ccccc2C(c2ccccc2F)=NC1Nc1nnc(-c2ccc(F)cc2)o1` (stereo not shown) [Example 379]: the EC50 was over 800 nM.

Take `O=C1Nc2ccccc2C(c2cccc(F)c2)=NC1Nc1nnc(-c2ccc(F)cc2)o1` (stereo not shown) [Example 380]: the EC50 is 400 to 800 nM.

With `N#Cc1cccc(C2=NC(Nc3nnc(-c4ccc(F)cc4)o3)C(=O)Nc3ccccc32)c1` (stereo not shown) [Example 381], the EC50 is over 800 nM.

As to `O=C1Nc2ccccc2C(c2ccc(F)cc2)=NC1Nc1nnc(-c2ccc(F)cc2)o1` (stereo not shown) [Example 382], the concentration giving a half-maximal response (EC50) was over 800 nM.

In the case of `O=C1Nc2ccccc2C(c2ccccc2)=N[C@@H]1Nc1nnc(-c2cc(C(F)(F)F)sc2N2CCOCC2)o1` [Example 383], the EC50 was under 400 nM.

Regarding `O=C1Nc2ccccc2C(c2ccccc2)=N[C@@H]1Nc1nnc(-c2cc(C3CC3)sc2N2CCOCC2)o1` [Example 384], the EC50 is under 400 nM.

With `O=C1Nc2ccccc2C(c2ccccc2)=N[C@@H]1Nc1nnc(-c2nc(-c3ccc(F)cn3)sc2N2CCOCC2)o1` [Example 389], the EC50 was under 400 nM.

Regarding `O=C1Nc2ccccc2C(c2ccccc2)=N[C@@H]1Nc1nnc(-c2nc(-c3ccc(C(F)(F)F)nc3)sc2N2CCOCC2)o1` [Example 390], the 50% effective concentration (EC50) is under 400 nM.

For `COCCCc1sc(C(F)(F)F)nc1-c1nnc(N[C@H]2N=C(c3ccccc3)c3ccccc3NC2=O)o1` [Example 396], the EC50 is over 800 nM.

For the compound `Cn1cc(-c2nc(-c3nnc(N[C@H]4N=C(c5ccccc5)c5ccccc5NC4=O)o3)c(N3CCOCC3)s2)cn1` [Example 399], the EC50 was under 400 nM.

With `O=C1Nc2ccccc2C(c2ccccc2)=NC1Nc1nnc(-c2nc(Br)sc2N2CCOCC2)o1` (stereo not shown) [Example 400], the concentration giving a half-maximal response (EC50) was under 400 nM.

As to `CCn1cc(-c2nnc(N[C@H]3N=C(c4ccccc4)c4ccccc4NC3=O)o2)c(N2CCOCC2)n1` [Example 401], the EC50 is under 400 nM.

With `COCCn1cc(-c2nnc(N[C@H]3N=C(c4ccccc4)c4ccccc4NC3=O)o2)c(N2CCOCC2)n1` [Example 402], the half-maximal effective concentration (EC50) was under 400 nM.

As to `O=C1Nc2ccccc2C(c2ccccc2)=N[C@@H]1Nc1nnc(-c2oc3ncccc3c2N2CCOCC2)o1` [Example 404], the EC50 is under 400 nM.

Consider `O=C1Nc2ccccc2C(c2ccccc2)=N[C@@H]1Nc1nnc(-c2nc(C3CCCCC3)sc2N2CCOCC2)o1` [Example 405], for which the concentration giving a half-maximal response (EC50) was under 400 nM.

For the compound `C#Cc1nc(-c2nnc(N[C@H]3N=C(c4ccccc4)c4ccccc4NC3=O)o2)c(N2CCOCC2)s1` [Example 406], the EC50 was under 400 nM.

Take `COc1ccc2nccc(-c3nnc(N[C@H]4N=C(c5ccccc5)c5ccccc5NC4=O)o3)c2c1` [Example 408]: the concentration giving a half-maximal response (EC50) was over 800 nM.
